The values that follow come from ChEMBL document CHEMBL5055687, “Improved 5-HT2 Selective Receptor Modulators for the Treatment of Psychological Disorders” (ACS Med Chem Lett, 2021).

What all share (assay type): cell-based
Test [1] concerns the target T1, 5-hydroxytryptamine receptor 2A (Homo sapiens, UniProt P28223). Kind of test: Modulation of human 5HT2A expressed in HEK293T cells co-transfected with Galphaq-RLuc8, Ggamma1-GFP2 and Gbeta1 assessed as dissociation of Galphaq from Ggamma1 preincubated for 1 hr followed by addition of coelenterazine 400a substrate and measured after 15 mins by BRET assay relative to 5-HT. The note with it: filed as modulator, time 75.0 min. A general note: In BRET a luciferase serves as donor, and the signal depends on an acceptor being close.

In test [2] the target is T2, 5-hydroxytryptamine receptor 2B (Homo sapiens, UniProt P41595). Nature of the test: Modulation of human 5HT2B expressed in HEK293T cells co-transfected with Galphaq-RLuc8, Ggamma1-GFP2 and Gbeta1 assessed as dissociation of Galphaq from Ggamma1 preincubated for 1 hr followed by addition of coelenterazine 400a substrate and measured after 15 mins by BRET assay relative to 5-HT. The following applies: time 75.0 min.
T2 sequence (P41595 whole entry): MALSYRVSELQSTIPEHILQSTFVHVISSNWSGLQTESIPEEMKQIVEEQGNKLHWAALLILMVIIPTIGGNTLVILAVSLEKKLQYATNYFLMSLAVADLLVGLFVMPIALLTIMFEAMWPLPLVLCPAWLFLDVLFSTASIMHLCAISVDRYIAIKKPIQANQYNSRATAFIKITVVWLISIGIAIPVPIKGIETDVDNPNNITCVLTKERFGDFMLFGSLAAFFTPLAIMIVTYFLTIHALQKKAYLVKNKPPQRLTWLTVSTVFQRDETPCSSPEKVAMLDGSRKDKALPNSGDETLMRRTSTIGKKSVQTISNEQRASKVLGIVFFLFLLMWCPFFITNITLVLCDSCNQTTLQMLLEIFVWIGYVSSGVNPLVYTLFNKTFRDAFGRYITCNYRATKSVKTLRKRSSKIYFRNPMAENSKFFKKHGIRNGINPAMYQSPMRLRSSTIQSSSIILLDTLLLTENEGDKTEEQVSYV

Test [3] addresses T2, 5-hydroxytryptamine receptor 2B. Kind of test: Modulation of human 5HT2B expressed in HEK293T cells co-transfected with Galphaq-RLuc8, Ggamma1-GFP2 and Gbeta1 assessed as dissociation of Galphaq from Ggamma1 preincubated for 1 hr followed by addition of coelenterazine 400a substrate and measured after 15 mins by BRET assay.
In test [4] the target is T1, 5-hydroxytryptamine receptor 2A. Kind of test: Modulation of human 5HT2A expressed in HEK293T cells co-transfected with Galphaq-RLuc8, Ggamma1-GFP2 and Gbeta1 assessed as dissociation of Galphaq from Ggamma1 preincubated for 1 hr followed by addition of coelenterazine 400a substrate and measured after 15 mins by BRET assay.
Test [5] addresses T3, 5-hydroxytryptamine receptor 2C (Homo sapiens, UniProt P28335).
T3 sequence (P28335 whole entry): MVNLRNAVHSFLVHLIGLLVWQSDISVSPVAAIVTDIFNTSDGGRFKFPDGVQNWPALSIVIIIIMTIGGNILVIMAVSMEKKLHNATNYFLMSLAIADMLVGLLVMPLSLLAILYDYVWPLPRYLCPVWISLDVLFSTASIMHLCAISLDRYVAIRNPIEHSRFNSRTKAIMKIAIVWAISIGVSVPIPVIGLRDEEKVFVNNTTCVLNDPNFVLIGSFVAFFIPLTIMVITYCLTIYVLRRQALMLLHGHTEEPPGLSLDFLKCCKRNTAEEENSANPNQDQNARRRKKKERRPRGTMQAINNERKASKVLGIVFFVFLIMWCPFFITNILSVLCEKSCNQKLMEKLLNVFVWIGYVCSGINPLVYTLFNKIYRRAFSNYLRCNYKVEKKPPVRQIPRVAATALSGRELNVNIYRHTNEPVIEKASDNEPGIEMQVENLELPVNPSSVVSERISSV
Kind of test: Modulation of human 5HT2C expressed in HEK293T cells co-transfected with Galphaq-RLuc8, Ggamma1-GFP2 and Gbeta1 assessed as dissociation of Galphaq from Ggamma1 preincubated for 1 hr followed by addition of coelenterazine 400a substrate and measured after 15 mins by BRET assay.

T1 sequence (P28223 whole entry): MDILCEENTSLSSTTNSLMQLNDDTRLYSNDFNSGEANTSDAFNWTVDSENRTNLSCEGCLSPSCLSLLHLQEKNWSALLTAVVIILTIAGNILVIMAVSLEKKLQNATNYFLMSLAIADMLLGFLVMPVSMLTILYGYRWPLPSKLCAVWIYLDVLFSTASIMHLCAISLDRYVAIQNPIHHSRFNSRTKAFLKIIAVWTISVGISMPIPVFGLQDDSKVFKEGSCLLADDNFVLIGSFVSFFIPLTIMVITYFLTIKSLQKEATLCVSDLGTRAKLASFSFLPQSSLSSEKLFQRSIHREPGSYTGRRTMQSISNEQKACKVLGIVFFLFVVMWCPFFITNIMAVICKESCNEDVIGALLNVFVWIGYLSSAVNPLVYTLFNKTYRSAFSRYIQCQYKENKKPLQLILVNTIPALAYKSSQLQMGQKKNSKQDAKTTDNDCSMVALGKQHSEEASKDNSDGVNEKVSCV

Turning to `CCN(C)CCc1cn(C)c2cccc(O)c12`, the Efficacy in test [1] was found to be 66%; in test [2] (filed as modulator), 44%.

As for `CC(C)N(C)CCc1cn(C)c2cccc(O)c12`, the values for the Efficacy in test [1] and in test [2] (filed as modulator) were 85% and 83%, respectively.

For `CN(C)CCc1cn(CC2CC2)c2cccc(O)c12`, in test [1], the Efficacy stood at 29%. Besides, in test [3] (hek293t), the IC50 (as a rule, the concentration needed to halve the response being measured) is “Not Active”.

With `CN(CCc1cn(C)c2cccc(O)c12)CC1CC1`, the Efficacy in test [1] was found to be 55%; in test [2], 19%.

`CN(C)CCc1cn(C)c2cccc(O)c12`: the Efficacy is 73% in test [1] and 40% in test [2] (filed as modulator). For the same molecule, the values for the IC50 in test [4], in test [3] (read-out: IC50) and in test [5] were 86.3 nM, 31.7 nM and 9.51 nM, respectively.

In the case of `CN(C)CCc1cn(CCF)c2cccc(O)c12`, in test [1], the Efficacy turned out to be 48%. For the same molecule, the half-maximal inhibitory concentration (IC50) was 188 nM in test [4], “Not Active” in test [3] (hek293t) and 2.7 nM in test [5].

For the molecule `CCn1cc(CCN(C)C)c2c(O)cccc21`, the Efficacy in test [1] came out at 65%. Moreover, the half-maximal inhibitory concentration (IC50) was 196 nM in test [4], “Not Active” in test [3] (hek293t) and 0.9 nM in test [5].

Turning to `CN(C)CCc1c[nH]c2cccc(O)c12`, the figures for the Efficacy in test [1] and in test [2] (filed as modulator) were 82% and 63%, respectively.
